Source: patent US6737383B1, “Herbicidal oxadiazolidines” (priority 1999, dated 2004)

Tests used:
blackgrass = assay: Test B pre/postemergence blackgrass; format: in vivo, Alopecurus myosuroides
How it was run: (§1)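 Test chemicals in a non-phytotoxic solvent mixture with surfactant were sprayed preemergence onto planted seeds and postemergence onto plants 2 to 18 cm tall (1- to 4-leaf stage). After twelve to sixteen days in a greenhouse, injury was visually rated against untreated controls from 0 (no effect) to 10 (complete control).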

bedstraw = assay: Test B pre/postemergence bedstraw; format: in vivo, Galium aparine
How it was run: as §1

wild oat = assay: Test B pre/postemergence wild oat; format: in vivo, Avena fatua
How it was run: as §1

morningglory = assay: Test B pre/postemergence morningglory; format: in vivo, Ipomoea hederacea
How it was run: as §1

pigweed = assay: Test B pre/postemergence pigweed; format: in vivo, Amaranthus retroflexus
How it was run: as §1

crabgrass = assay: Test B pre/postemergence crabgrass; format: in vivo, Digitaria sanguinalis
How it was run: as §1

purple nutsedge = assay: Test B pre/postemergence purple nutsedge; format: in vivo, Cyperus rotundus
How it was run: as §1

cocklebur = assay: Test B pre/postemergence cocklebur; format: in vivo, Xanthium strumarium
How it was run: as §1

giant foxtail = assay: Test B pre/postemergence giant foxtail; format: in vivo, Setaria faberii
How it was run: as §1

soybean = assay: Test B pre/postemergence soybean; format: in vivo, Glycine max
How it was run: as §1

velvetleaf = assay: Test B pre/postemergence velvetleaf; format: in vivo, Abutilon theophrasti
How it was run: as §1

surinam grass = assay: Test B pre/postemergence surinam grass; format: in vivo, Brachiaria decumbens
How it was run: as §1

wheat = assay: Test B pre/postemergence wheat; format: in vivo, Triticum aestivum
How it was run: as §1

[1] = Postemergence, Rate 125 g/ha, scale of 0 to 10 where 0 is no effect and 10 is complete control
[2] = Preemergence, Rate 62 g/ha, scale 0 to 10 (0 no effect, 10 complete control)
[3] = Preemergence, Rate 125 g/ha, 0 is no effect, 10 is complete control
[4] = Preemergence, Rate 250 g/ha, scale 0 to 10, 0 is no effect, 10 is complete control
[5] = Preemergence, Rate 500 g/ha, scale 0 to 10 (0 no effect, 10 complete control)
[6] = Rate 62 g/ha, Postemergence, scale of 0 to 10 where 0 is no effect and 10 is complete control
[7] = Rate 250 g/ha, Postemergence, scale 0 to 10, 0 is no effect, 10 is complete control
[8] = Rate 500 g/ha, Postemergence, scale 0 to 10

Cc1ccc(N(C(=O)n2oc(=O)n(C(C)C)c2=O)C(C)C)cc1 [Compound 132]
8: Plant response rating, Blackgrass (blackgrass; [7]) | Wild oats plant response rating (wild oat; [4]) | Plant response rating, Crabgrass (crabgrass; [7]) | Giant foxtail plant response rating (giant foxtail; [2]) | Giant foxtail plant response rating (0 to 10 scale) (giant foxtail; [3]) | Giant foxtail plant response rating (giant foxtail; [6])
3: Blackgrass plant response rating (blackgrass; [2]) | Wild oats plant response rating (wild oat; [2]) | Wild oats plant response rating (wild oat; [8]) | Morningglory plant response rating (morningglory; [6]) | Plant response rating, Nutsedge (purple nutsedge; [7]) | Soybean plant response rating (soybean; [1]) | Soybean plant response rating (soybean; [6]) | Velvetleaf plant response rating (velvetleaf; [2]) | Plant response rating, Velvetleaf (velvetleaf; [7]) | Velvetleaf plant response rating (velvetleaf; [8]) | B. signalgrass plant response rating (surinam grass; [1]) | B. signalgrass plant response rating (0 to 10 scale) (surinam grass; [3])
5: Wild oats plant response rating (0 to 10 scale) (wild oat; [3]) | Crabgrass plant response rating (crabgrass; [6])
7: Bedstraw plant response rating (bedstraw; Rate 500 g/ha, Postemergence, scale 0 to 10, 0 no effect, 10 complete control) | Morningglory plant response rating (morningglory; [8]) | Redroot pigweed plant response rating (pigweed; [4]) | Redroot pigweed plant response rating (pigweed; [5]) | Crabgrass plant response rating (crabgrass; [1]) | Crabgrass plant response rating (crabgrass; [2]) | Crabgrass plant response rating (0 to 10 scale) (crabgrass; [3]) | B. signalgrass plant response rating (surinam grass; [4]) | B. signalgrass plant response rating (surinam grass; Rate 500 g/ha, Postemergence, scale of 0 to 10 where 0 is no effect and 10 is complete control)
4: Nutsedge plant response rating (purple nutsedge; [8]) | Soybean plant response rating (soybean; [5]) | Plant response rating, Soybean (soybean; [7]) | Velvetleaf plant response rating (0 to 10 scale) (velvetleaf; [3]) | Plant response rating, B. signalgrass (surinam grass; [7]) | Wheat plant response rating (wheat; [5])
2: Blackgrass plant response rating (blackgrass; [1]) | Plant response rating, Bedstraw (bedstraw; [7]) | Wild oats plant response rating (wild oat; [1]) | Plant response rating, Wild oats (wild oat; [7]) | Morningglory plant response rating (morningglory; [5]) | Redroot pigweed plant response rating (pigweed; [2]) | Redroot pigweed plant response rating (pigweed; [8]) | Nutsedge plant response rating (purple nutsedge; [1]) | Soybean plant response rating (soybean; [4]) | Velvetleaf plant response rating (velvetleaf; [1]) | Velvetleaf plant response rating (velvetleaf; [6]) | Wheat plant response rating (wheat; [1]) | Wheat plant response rating (wheat; [4]) | Plant response rating, Wheat (wheat; [7])
0: Blackgrass plant response rating (blackgrass; [6]) | Bedstraw plant response rating (bedstraw; [1]) | Bedstraw plant response rating (bedstraw; [2]) | Bedstraw plant response rating (0 to 10 scale) (bedstraw; [3]) | Bedstraw plant response rating (bedstraw; [6]) | Wild oats plant response rating (wild oat; [6]) | Morningglory plant response rating (morningglory; [2]) | Morningglory plant response rating (0 to 10 scale) (morningglory; [3]) | Morningglory plant response rating (morningglory; [4]) | Redroot pigweed plant response rating (pigweed; [1]) | Redroot pigweed plant response rating (pigweed; [6]) | Plant response rating, Redroot pigweed (pigweed; [7]) | Nutsedge plant response rating (purple nutsedge; [2]) | Nutsedge plant response rating (0 to 10 scale) (purple nutsedge; [3]) | Nutsedge plant response rating (purple nutsedge; [4]) | Nutsedge plant response rating (purple nutsedge; [6]) | Cocklebur plant response rating (cocklebur; [1]) | Cocklebur plant response rating (cocklebur; [2]) | Cocklebur plant response rating (0 to 10 scale) (cocklebur; [3]) | Cocklebur plant response rating (cocklebur; [5]) | Cocklebur plant response rating (cocklebur; [6]) | Plant response rating, Cocklebur (cocklebur; [7]) | Cocklebur plant response rating (cocklebur; [8]) | Soybean plant response rating (soybean; [2]) | Soybean plant response rating (0 to 10 scale) (soybean; [3]) | B. signalgrass plant response rating (surinam grass; [2]) | B. signalgrass plant response rating (surinam grass; [6]) | Wheat plant response rating (wheat; [2]) | Wheat plant response rating (0 to 10 scale) (wheat; [3]) | Wheat plant response rating (wheat; [6])
9: Blackgrass plant response rating (blackgrass; [4]) | Blackgrass plant response rating (blackgrass; [8]) | Bedstraw plant response rating (bedstraw; [4]) | Wild oats plant response rating (wild oat; [5]) | Crabgrass plant response rating (crabgrass; [4]) | Crabgrass plant response rating (crabgrass; [5]) | Crabgrass plant response rating (crabgrass; [8]) | Nutsedge plant response rating (purple nutsedge; [5]) | Giant foxtail plant response rating (giant foxtail; [1]) | Giant foxtail plant response rating (giant foxtail; [4]) | Plant response rating, Giant foxtail (giant foxtail; [7]) | Giant foxtail plant response rating (giant foxtail; [8]) | B. signalgrass plant response rating (surinam grass; [5])
10: Blackgrass plant response rating (blackgrass; [5]) | Bedstraw plant response rating (bedstraw; [5]) | Giant foxtail plant response rating (giant foxtail; [5]) | Velvetleaf plant response rating (velvetleaf; [5])
6: Blackgrass plant response rating (0 to 10 scale) (blackgrass; [3]) | Morningglory plant response rating (morningglory; [1]) | Plant response rating, Morningglory (morningglory; [7]) | Redroot pigweed plant response rating (0 to 10 scale) (pigweed; [3]) | Soybean plant response rating (soybean; [8]) | Velvetleaf plant response rating (velvetleaf; [4]) | Wheat plant response rating (wheat; [8])
